The structures appear in SMILES notation.

In data set [1] the test system is human coronary artery smooth muscle cell. Particulars: concentrations up to 30,000.00 nanomolar, FIG. 69. The source says: In vitro cytotoxicity tests or assays may be utilized to determine if drugs, agents and/or compounds are potentially toxic and the level of toxicity. Essentially, in vitro cytotoxicity assays determine acute necrotic effects by a drug causing direct cellular damage. The idea behind these assays is that toxic chemicals affect basic functions of cells which are common to all cells. […] There are a number of different assays that may be utilized. In the present invention, the cytotoxicity assay utilized is based upon the measurement of cellular metabolic activity. A reduction in metabolic activity is an indication of cellular damage. Tests that can measure metabolic function measure cellular ATP levels or mitochondrial activity via MTS metabolism. FIG. 69 is a graphical representation of the results of an MTS assay of Panzem®.

For data set [2], the system named is human coronary artery smooth muscle cells. Nature of the data set: Anti-proliferative activity in synchronized cultured human coronary artery smooth muscle cells stimulated with two percent fetal bovine serum. In kind it is cell-based. An excerpt:
The multiple curves represent various concentrations of topotecan ranging from zero to three hundred nanomolar concentrations.
The multiple curves represent various concentrations of etoposide ranging from zero to eight hundred nanomolar concentrations.
The multiple curves represent various concentrations of Panzem® ranging from zero to 100 micromolar concentrations.

Data set [3] deals with human coronary artery smooth muscle cell. Nature of the data set: In vitro cell culture study of human coronary artery smooth muscle cell proliferation (trichostatin A). In kind it is cell-based. The source says:
FIG. 51 is a graph of the inhibition of coronary artery smooth muscle cells by trichostatin A in a cell culture study.

The next data set deals with tumor cell lines. To be noted: cited from earlier work.
Data set [4] can be described thus: In vivo release kinetics from stent coatings in porcine pharmacokinetics studies. Particulars: after eight (8) days of implantation; single layer sirolimus/cilostazol EVA/BMA coating with 100 μg BMA overcoat (FIG. 86), FIG. 84. The source says: The topcoat is two hundred micro grams.
The basecoat is applied to Bx Velocity® stents and implanted into Yorkshire pigs.
Another critical parameter for the performance of the thrombus resistance of a device coated with cilostazol is the duration of the drug release from the coating. This is of particular significance in the two weeks after device implantation. […] The purpose of the porcine PK study is to assess the local pharmacokinetics of a drug eluting stent at a given implantation time. Normally three stents are implanted in three different coronary arteries in a pig for a given time point and then retrieved for total drug recovery analysis. The stents are retrieved at predetermined time points; namely, 1, 3 and 8 days. The stents are extracted and the total amount of drug remaining on the stents is determined by analysis utilizing HPLC (high performance liquid chromatography) for total drug amount. The difference between the original amount of drug on the stent and the amount of drug retrieved at a given time represents the amount of drug released in that period. The continuous release of drug into surrounding arterial tissue is what prevents the neointimal growth and restenosis in the coronary artery. A normal plot represents the percentage of total drug released (%, y-axis) vs. time of implantation (day, x-axis). […] In this exemplary configuration, the stent 8600 is coated with two layers. The first layer 8602 comprises a combination of sirolimus, cilostazol and a copolymer matrix of EVA/BMA. The second layer or diffusion overcoat 8604 comprises only BMA. More specifically, in this embodiment, the first layer 8602 comprises a combination of sirolimus and cilastazol that is forty-five (45) percent by weight of the total weight of the first layer 8602 and an EVA/BMA copolymer matrix that is fifty-five (55) percent by weight of the total weight of the first layer 8602. The diffusion overcoat comprises one hundred (100 μg) micrograms of BMA.
Pigs are an established animal species for intravascular stent studies and accepted for such studies by the appropriate regulatory agencies. This in vivo study utilized male pigs of the species Sus Scrofa and strain Yoorkshire pigs. S.M.A.R.T.™ stents, available from Cordis Corporation, were placed into the iliac and femoral arteries, PALMAZ® GENESIS™ stents, available from Cordis Corporation, were placed in the renal arteries and CYPHER™ stents, available from Cordis Corporation, were placed in the coronary arteries.

Data set [5] deals with platelet deposition and thrombus formation on the stent surface. Nature of the data set: In vitro bovine blood loop model (In 111 labeled platelets). Particulars: FIG. 83. An excerpt: The anti-thrombotic efficacy of the above-described three configurations is illustrated in FIG. 83. FIG. 83 illustrates the anti-thrombotic properties of the sirolimus/cilostazol combination coatings described above in an in vitro bovine blood loop model. In the in vitro bovine blood loop model, fresh bovine blood is heparinized to adjust for acute clotting time (ACT) of about two hundred (200) seconds. The platelet content in the blood is labeled through the use of Indium 111. In the study, a stent is deployed in a silicone tube, which is part of a closed loop system for blood circulation. The heparinzed blood is circulated through the closed loop system by means of a circulating pump. Blood clots and thrombus builds up on a stent surface over time and reduces the flow rate of blood through the stented loop. […] The control drug eluting stent is the Cypher® sirolimus eluting coronary stent available from Cordis Corporation. Bar 8304 is a stent coated with heparin and is available from Cordis Corporation under the […]® on the Bx Velocity® coronary stent trademark. Bar 8306 is a stent configured as set forth with respect to the architecture illustrated in FIG. 76. Bar 8308 is a stent configured as set forth with respect to the architecture illustrated in FIG. 80. Bar 8310 is a stent configured as set forth with respect to the architecture illustrated in FIG. 82.

As for `COc1cc2c(cc1O)CC[C@@H]1[C@@H]2CC[C@]2(C)[C@@H](O)CC[C@@H]12` [Panzem®, 2-methoxyestradiol], the “cytotoxicity, MTS assay (cell survival)” value in data set [1] is listed as “do not reduce human coronary artery smooth muscle cell survival”. The anti-proliferative activity entry in data set [2] (FIG. 66) is “extremely effective inhibitor of human coronary artery smooth muscle cell proliferation in vitro”. In data set [2] (topotecan to 300 nanomolar (FIG. 64), etoposide to eight hundred nanomolar (FIG. 65), Panzem to 100 micromolar (FIG. 68)), the “effect of addition on the anti-proliferative rapamycin dose response curve” value is on record as “increases the percent of inhibition of rapamycin alone”.
Take `CC(/C=C/C(=O)NO)=C\[C@@H](C)C(=O)c1ccc(N(C)C)cc1` [trichostatin A]: the IC50 – broadly, the point on the concentration scale where inhibition reaches its midpoint – in data set [3] (human coronary artery smooth muscle cell proliferation, read-out: anti-proliferative IC50) is about 6 nM. Moreover, the “inhibition of human coronary artery smooth muscle cell proliferation” value in data set [3] (in vitro cell culture) was “completely inhibit”. Moreover, the “anti-proliferative IC50” value in the data set on tumor cell lines is “low nM range”.
As to `O=C1CCc2cc(OCCCCc3nnnn3C3CCCCC3)ccc2N1` [cilostazol, 6[4-(1-cyclohexyl-1H-tetrazol-5-yl)-butoxy]-3,4-dihydro-2-(1H)-quinolinone], in data set [4], the “drug remaining in the drug coating” value was about 80%. In addition, the thrombus formation result in data set [5] is on record as “significantly reduces thrombus formation”.

(Values after patent US20070173787A1, “Thin-film nitinol based drug eluting stent” (priority 2005, published 2007).)
